Experimental data taken from patent publication US9695155B2, “Herbicidal substituted pyrimidinyloxy benzene compounds” (E. I. DU PONT DE NEMOURS AND COMPANY, priority 2013, dated 2017).

Key:
wheat [1] = assay: Test A postemergence; assay type: in vivo, Triticum aestivum
Outline: (§1)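 Visual 0–100 rating (100 = complete control) taken about 10 d post-treatment relative to untreated checks. Preemergence: directed soil spray on sown loam/sand pots. Postemergence: seedlings 2–10 cm, 1–2 leaf. Non-phytotoxic solvent formulation with surfactant.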

pigweed [2] = assay: Test A preemergence; assay type: in vivo, Amaranthus retroflexus
Outline: as §1

rice = assay: Test B flooded paddy test; assay type: in vivo, Oryza sativa; settings: Flood, 250 g ai/ha; 0 to 100 scale where 0 is no effect and 100 is complete control
Outline: (§2)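 Visual ratings on a 0 to 100 scale, where 100 means complete control, compared treated plants with controls after 13 to 15 days in a greenhouse. Treatment went into paddy water 3 cm deep over the soil, applied to plants at the 2-leaf stage.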

giant foxtail [3] = assay: Test A postemergence; assay type: in vivo, Setaria faberii
Outline: as §1

sedge, umbrella = assay: Test B flooded paddy test; assay type: in vivo, Cyperus difformis; settings: Flood, 250 g ai/ha; 0 to 100 scale where 0 is no effect and 100 is complete control
Outline: as §2

corn [4] = assay: Test A preemergence; assay type: in vivo, Zea mays
Outline: as §1

giant foxtail [5] = assay: Test A preemergence; assay type: in vivo, Setaria faberii
Outline: as §1

Heteranthera limosa = assay: Test B flooded paddy test; assay type: in vivo; settings: Flood, 250 g ai/ha; 0 to 100 scale where 0 is no effect and 100 is complete control
Outline: as §2

barnyardgrass [6] = assay: Test A preemergence; assay type: in vivo, Echinochloa crus-galli
Outline: as §1

morningglory [7] = assay: Test A postemergence; assay type: in vivo, Ipomoea spp.
Outline: as §1

barnyardgrass [8] = assay: Test A postemergence; assay type: in vivo, Echinochloa crus-galli
Outline: as §1

pigweed [9] = assay: Test A postemergence; assay type: in vivo, Amaranthus retroflexus
Outline: as §1

velvetleaf [10] = assay: Test A preemergence; assay type: in vivo, Abutilon theophrasti
Outline: as §1

large (Lg) crabgrass [11] = assay: Test A preemergence; assay type: in vivo, Digitaria sanguinalis
Outline: as §1

wheat [12] = assay: Test A preemergence; assay type: in vivo, Triticum aestivum
Outline: as §1

velvetleaf [13] = assay: Test A postemergence; assay type: in vivo, Abutilon theophrasti
Outline: as §1

large (Lg) crabgrass [14] = assay: Test A postemergence; assay type: in vivo, Digitaria sanguinalis
Outline: as §1

morningglory [15] = assay: Test A preemergence; assay type: in vivo, Ipomoea spp.
Outline: as §1

corn [16] = assay: Test A postemergence; assay type: in vivo, Zea mays
Outline: as §1

barnyardgrass [17] = assay: Test B flooded paddy test; assay type: in vivo, Echinochloa crus-galli; settings: Flood, 250 g ai/ha; 0 to 100 scale where 0 is no effect and 100 is complete control
Outline: as §2

[18] = 1000 g ai/ha, 0 to 100 scale, 0 no effect, 100 complete control
[19] = 1000 g ai/ha, 0 to 100 scale, 0 no effect, 100 complete control, approx. 10 days
[20] = 125 g ai/ha, 0 to 100 scale where 0 is no effect and 100 is complete control
[21] = 500 g ai/ha, 0 to 100 scale where 0 is no effect and 100 is complete control

N#Cc1cccc(Oc2ncc(Cl)cn2)c1-n1cncn1 [Compound 193]
Plant response rating, Wheat (wheat [1]; [18]): 20 | Pigweed plant response rating (pigweed [2]; [19]): 100 | Plant response rating, Rice (rice): 0 | Plant response rating, Foxtail, Giant (giant foxtail [3]; [18]): 80 | Plant response rating, Sedge, Umbrella (sedge, umbrella): 0 | Corn plant response rating (corn [4]; [19]): 20 | Foxtail, Giant plant response rating (giant foxtail [5]; [19]): 100 | Plant response rating, Ducksalad (Heteranthera limosa): 0 | Barnyardgrass plant response rating (barnyardgrass [6]; [19]): 60 | Plant response rating, Morningglory (morningglory [7]; [18]): 90 | Plant response rating, Barnyardgrass (barnyardgrass [8]; [18]): 90 | Plant response rating, Pigweed (pigweed [9]; [18]): 100 | Velvetleaf plant response rating (velvetleaf [10]; [19]): 90 | Crabgrass, Large plant response rating (large (Lg) crabgrass [11]; [19]): 100 | Wheat plant response rating (wheat [12]; [19]): 20 | Plant response rating, Velvetleaf (velvetleaf [13]; [18]): 90 | Plant response rating, Crabgrass, Large (large (Lg) crabgrass [14]; [18]): 80 | Morningglory plant response rating (morningglory [15]; [19]): 100 | Plant response rating, Corn (corn [16]; [18]): 60 | Plant response rating, Barnyardgrass (barnyardgrass [17]): 0

FC(F)c1cccc(Oc2ncc(Cl)cn2)c1-n1cc(Cl)cn1 [Compound 209]
Wheat plant response rating (wheat [1]; [20]): 0 | Plant response rating, Wheat (wheat [1]; [21]): 70 | Pigweed plant response rating (0 to 100 scale) (pigweed [2]; 125 g ai/ha): 100 | Pigweed plant response rating (pigweed [2]; [21]): 100 | Plant response rating, Rice (rice): 0 | Foxtail, Giant plant response rating (giant foxtail [3]; [20]): 70 | Plant response rating, Foxtail, Giant (giant foxtail [3]; [21]): 90 | Plant response rating, Sedge, Umbrella (sedge, umbrella): 60 | Corn plant response rating (0 to 100 scale) (corn [4]; 125 g ai/ha): 0 | Corn plant response rating (corn [4]; [21]): 20 | Foxtail, Giant plant response rating (0 to 100 scale) (giant foxtail [5]; 125 g ai/ha): 100 | Foxtail, Giant plant response rating (giant foxtail [5]; [21]): 100 | Plant response rating, Ducksalad (Heteranthera limosa): 75 | Barnyardgrass plant response rating (0 to 100 scale, 0 is no effect, 100 is complete control) (barnyardgrass [6]; 125 g ai/ha): 60 | Barnyardgrass plant response rating (barnyardgrass [6]; [21]): 100 | Morningglory plant response rating (morningglory [7]; [20]): 50 | Plant response rating, Morningglory (morningglory [7]; [21]): 90 | Barnyardgrass plant response rating (barnyardgrass [8]; [20]): 40 | Plant response rating, Barnyardgrass (barnyardgrass [8]; [21]): 100 | Pigweed plant response rating (pigweed [9]; [20]): 100 | Plant response rating, Pigweed (pigweed [9]; [21]): 100 | Velvetleaf plant response rating (0 to 100 scale) (velvetleaf [10]; 125 g ai/ha): 90 | Velvetleaf plant response rating (velvetleaf [10]; [21]): 90 | Crabgrass, Large plant response rating (0 to 100 scale) (large (Lg) crabgrass [11]; 125 g ai/ha): 100 | Crabgrass, Large plant response rating (large (Lg) crabgrass [11]; [21]): 100 | Wheat plant response rating (0 to 100 scale) (wheat [12]; 125 g ai/ha): 0 | Wheat plant response rating (wheat [12]; [21]): 20 | Velvetleaf plant response rating (velvetleaf [13]; [20]): 100 | Plant response rating, Velvetleaf (velvetleaf [13]; [21]): 100 | Crabgrass, Large plant response rating (large (Lg) crabgrass [14]; [20]): 70 | Plant response rating, Crabgrass, Large (large (Lg) crabgrass [14]; [21]): 90 | Morningglory plant response rating (0 to 100 scale) (morningglory [15]; 125 g ai/ha): 10 | Morningglory plant response rating (morningglory [15]; [21]): 70 | Corn plant response rating (corn [16]; [20]): 30 | Plant response rating, Corn (corn [16]; [21]): 70 | Plant response rating, Barnyardgrass (barnyardgrass [17]): 30
